Results from patent publication EP4763839A1 (Pamplona Therapeutics (Shenzhen) Co., Ltd., priority 2023, dated 2025).

Each molecule was assayed against T1, IRAK4 (Homo sapiens, UniProt Q9NWZ3) (assay: Assay for inhibitory effect of compound on IRAK4 kinase activity (KinEASE-STK S1 HTRF kit)). Conditions: kinase 8 nM, ATP 80 µM, 37°C 90 minutes; read-out: IRAK4 HTRF IC50.
T1 sequence (Q9NWZ3 1-460): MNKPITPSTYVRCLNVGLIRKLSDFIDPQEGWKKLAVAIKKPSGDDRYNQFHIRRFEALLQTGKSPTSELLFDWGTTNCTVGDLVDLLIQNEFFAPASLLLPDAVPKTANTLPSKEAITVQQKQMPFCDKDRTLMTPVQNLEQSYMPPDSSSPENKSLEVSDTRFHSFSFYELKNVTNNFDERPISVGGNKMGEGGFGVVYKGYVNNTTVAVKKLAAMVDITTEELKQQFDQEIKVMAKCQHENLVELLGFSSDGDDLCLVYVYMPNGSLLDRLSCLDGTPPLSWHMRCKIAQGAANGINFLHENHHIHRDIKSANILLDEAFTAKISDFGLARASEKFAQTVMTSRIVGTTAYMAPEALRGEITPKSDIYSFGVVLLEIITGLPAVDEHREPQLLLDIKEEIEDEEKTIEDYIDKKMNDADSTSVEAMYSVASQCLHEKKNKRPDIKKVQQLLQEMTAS
Type: biochemical
Experimental: Example 1: Kinase activity assay
Assay for inhibitory effect of compound on IRAK4 kinase activity
The inhibitory effect of the compound on IRAK4 kinase activity was measured using the KinEASE-STK S1 serine/threonine kinase kit (Cisbio). The specific method was as follows: the compound was dissolved in dimethyl sulfoxide and then subjected to 3-fold serial dilution in dimethyl sulfoxide, yielding final test compound concentrations in the reaction system ranging from 5,000 nM to 0.0254 nM. The kinase at a final concentration of 8 nM was added, followed by incubation at rt for 15 minutes. Subsequently, biotinylated STK1 substrate at a final concentration of 400 nM and adenosine triphosphate (ATP) at a final concentration of 80 µM were sequentially added, and the mixture was incubated at 37°C for 90 minutes. Then, the reaction was terminated by adding an anti-phosphoserine/threonine antibody conjugated with a europium cryptate and streptavidin-conjugated XL665 to the reaction system. After incubation at rt for 1 hour, the fluorescence intensity at emission wavelengths of 620 nm and 665 nm for each well was measured using an EnVision microplate reader (PerkinElmer) in HTRF mode. The ratio value was calculated using the formula: Ratio = (665 nm/620 nm)×10^4 The inhibition rate of the compound at each concentration was calculated using the formula: Inhibition% = [1-(Signal sample-Signal min)/(Signal max-Signal min)]×100. Subsequently, the dose-response curve was fitted by nonlinear curve fitting of log concentration versus inhibition rate using Fit Modela (205) in XLfit to give the IC50 value of the compound for inhibition of protein activity.

| SMILES | IC50 |
| --- | --- |
| CS(=N)(=O)c1nn(-c2ccccc2)cc1NC(=O)c1cccc(-c2cc[nH]n2)n1 (stereo not drawn) [Compound A96, N-(3-(S-methylsulfonimidoyl)-1-phenyl-1H-pyrazol-4-yl)-6-(1H-pyrazol-3-yl)picolinamide] | 100 to 1000 nM |
| CS(=N)(=O)c1nn(-c2ccccc2)cc1NC(=O)c1cccc(-c2cn[nH]c2)n1 (stereo not drawn) [Compound A97, N-(3-(S-methylsulfonimidoyl)-1-phenyl-1H-pyrazol-4-yl)-6-(1H-pyrazol-4-yl)picolinamide] | < 100 nM |
| CS(=N)(=O)c1nn(-c2ccccc2)cc1NC(=O)c1cccc(-c2c[nH]cn2)n1 (stereo not drawn) [Compound A98, 6-(1H-imidazol-4-yl)-N-(3-(S-methylsulfonimidoyl)-1-phenyl-1H-pyrazol-4-yl)picolinamide] | 100 to 1000 nM |
| CC(C)(O)c1nn(C2CC3(CCNCC3)C2)cc1NC(=O)c1ccc2cc(C#N)cnn12 [Compound A106, 3-Cyano-N-(3-(2-hydroxypropan-2-yl)-1-(7-azaspiro[3.5]nonan-2-yl)-1H-pyrazol-4-yl)pyrrolo[1,2-b]pyridazine-7-carboxamide] | < 100 nM |
| CC(C)n1cc(-c2ccccc2)nc1NC(=O)c1cccc(C(F)(F)F)n1 [Compound A107, N-(1-isopropyl-4-phenyl-1H-imidazol-2-yl)-6-(trifluoromethyl)picolinamide] | > 1000 nM |
| CC(C)n1nc(-c2ccccc2)nc1NC(=O)c1cccc(C(F)(F)F)n1 [Compound A108, N-(1-Isopropyl-3-phenyl-1H-1,2,4-triazol-5-yl)-6-(trifluoromethyl)picolinamide] | > 1000 nM |
| NC(=O)c1nn(C2CCN(CCN3CCN(c4ccc5c(c4)C(=O)N(C4CCC(=O)NC4=O)C5=O)CC3)CC2)cc1NC(=O)c1cccc(C(F)(F)F)n1 (stereo not drawn) [Compound A109] | 100 to 1000 nM |
| NC(=O)c1nn(-c2ccc(C(=O)N3CC(CNc4ccc5c(c4)C(=O)N(C4CCC(=O)NC4=O)C5=O)C3)cc2)cc1NC(=O)c1cccc(C(F)(F)F)n1 (stereo not drawn) [Compound A110] | < 100 nM |
| N#Cc1cnn2c(C(=O)Nc3cn(C4CC5(CCNCC5)C4)nc3C(F)F)ccc2c1 [Compound A229, 3-Cyano-N-(3-(difluoromethyl)-1-(7-azaspiro[3.5]nonan-2-yl)-1H-pyrazol-4-yl)pyrrolo[1,2-b]pyridazine-7-carboxamide] | < 100 nM |
| COc1nn(C2CC3(CCNCC3)C2)cc1NC(=O)c1ccc2cc(C#N)cnn12 [Compound A230, 3-Cyano-N-(3-methoxy-1-(7-azaspiro[3.5]nonan-2-yl)-1H-pyrazol-4-yl)pyrrolo[1,2-b]pyridazine-7-carboxamide] | < 100 nM |
| N#Cc1cnn2c(C(=O)Nc3cn(-c4ccccc4)nc3C(N)=O)ccc2c1 [Compound A231] | < 100 nM |
| CC(C)(O)c1nn(-c2ccccc2)cc1NC(=O)c1ccc2cc(C#N)cnn12 [Compound A232, 3-Cyano-N-(3-(2-hydroxypropan-2-yl)-1-phenyl-1H-pyrazol-4-yl)pyrrolo[1,2-b]pyridazine-7-carboxamide] | < 100 nM |
| N#Cc1cnn2c(C(=O)Nc3cn(-c4ccccc4)nc3C(F)F)ccc2c1 [Compound A233, 3-Cyano-N-(3-(difluoromethyl)-1-phenyl-1H-pyrazol-4-yl)pyrrolo[1,2-b]pyridazine-7-carboxamide] | < 100 nM |
| [C-]#[N+]c1cnn2c(C(=O)Nc3cn(-c4ccccc4)nc3OC)ccc2c1 [Compound A234, 3-Isocyano-N-(3-methoxy-1-phenyl-1H-pyrazol-4-yl)pyrrolo[1,2-b]pyridazine-7-carboxamide] | < 100 nM |
| N#Cc1cnn2c(C(=O)Nc3cn(C4CCCCC4)nc3C(N)=O)ccc2c1 [Compound A235] | < 100 nM |
| O=C(Nc1cn(-c2ccccc2)nc1C(=O)CC(F)(F)F)c1cccc(-c2ccn[nH]2)n1 [Compound A236, N-(1-Phenyl-3-(3,3,3-trifluoropropanoyl)-1H-pyrazol-4-yl)-6-(1H-pyrazol-5-yl)picolinamide] | 100 to 1000 nM |
| O=C(Nc1cn(-c2ccccc2)nc1OCC(F)(F)F)c1cccc(-c2ccn[nH]2)n1 [Compound A238, N-(1-Phenyl-3-(2,2,2-trifluoroethoxy)-1H-pyrazol-4-yl)-6-(1H-pyrazol-5-yl)picolinamide] | < 100 nM |

| SMILES | IC50 |
| --- | --- |
| O=C(Nc1cn(-c2ccccc2)nc1C(F)F)c1cccc(-c2ccn[nH]2)n1 [Compound A239, N-(3-(Difluoromethyl)-1-phenyl-1H-pyrazol-4-yl)-6-(1H-pyrazol-5-yl)picolinamide] | < 100 nM |
| CC(C)(O)c1nn(-c2ccccc2)cc1NC(=O)c1cccc(-c2ccn[nH]2)n1 [Compound A240, N-(3-(2-Hydroxypropan-2-yl)-1-phenyl-1H-pyrazol-4-yl)-6-(1H-pyrazol-5-yl)picolinamide] | < 100 nM |
| CC(=O)c1nn(-c2ccccc2)cc1NC(=O)c1cccc(-c2ccn[nH]2)n1 [Compound A241, N-(3-Acetyl-1-phenyl-1H-pyrazol-4-yl)-6-(1H-pyrazol-5-yl)picolinamide] | < 100 nM |
| [2H]C([2H])C(=O)c1nn(-c2ccccc2)cc1NC(=O)c1cccc(-c2ccn[nH]2)n1 [Compound A242, N-(3-(Acetyl-2,2-d2)-1-phenyl-1H-pyrazol-4-yl)-6-(1H-pyrazol-5-yl)picolinamide] | < 100 nM |
| O=C(Nc1cn(-c2ccccc2)nc1C(=O)C(F)(F)F)c1cccc(-c2ccn[nH]2)n1 [Compound A243, N-(1-Phenyl-3-(2,2,2-trifluoroacetyl)-1H-pyrazol-4-yl)-6-(1H-pyrazol-5-yl)picolinamide] | < 100 nM |
| O=C(Nc1cn(-c2ccccc2)nc1C(=O)C(F)F)c1cccc(-c2ccn[nH]2)n1 [Compound A244, N-(3-(2,2-difluoroacetyl)-1-phenyl-1H-pyrazol-4-yl)-6-(1H-pyrazol-5-yl)picolinamide] | < 100 nM |
| O=C(Nc1cn(-c2ccccc2)nc1C1CCN1)c1cccc(-c2ccn[nH]2)n1 (stereo not drawn) [Compound A245, N-(3-(Azetidin-2-yl)-1-phenyl-1H-pyrazol-4-yl)-6-(1H-pyrazol-5-yl)picolinamide] | > 1000 nM |
| CNC(=O)c1nn(-c2ccccc2)cc1NC(=O)c1cccc(-c2ccn[nH]2)n1 [Compound A246, N-(3-(Methylcarbamoyl)-1-phenyl-1H-pyrazol-4-yl)-6-(1H-pyrazol-5-yl)picolinamide] | < 100 nM |
| CC(C)NC(=O)c1nn(-c2ccccc2)cc1NC(=O)c1cccc(-c2ccn[nH]2)n1 [Compound A247, N-(3-(Isopropylcarbamoyl)-1-phenyl-1H-pyrazol-4-yl)-6-(1H-pyrazol-5-yl)picolinamide] | 100 to 1000 nM |
| CNS(=O)(=O)c1nn(-c2ccccc2)cc1NC(=O)c1cccc(-c2ccn[nH]2)n1 [Compound A248, N-(3-(N-Methylsulfamoyl)-1-phenyl-1H-pyrazol-4-yl)-6-(1H-pyrazol-5-yl)picolinamide] | < 100 nM |
| CC(C)NS(=O)(=O)c1nn(-c2ccccc2)cc1NC(=O)c1cccc(-c2ccn[nH]2)n1 [Compound A249, N-(3-(N-Isopropylsulfamoyl)-1-phenyl-1H-pyrazol-4-yl)-6-(1H-pyrazol-5-yl)picolinamide] | 100 to 1000 nM |
| O=C(Nc1cn(-c2ccccc2)nc1C(=O)NC1CC1)c1cccc(-c2ccn[nH]2)n1 [Compound A250, N-(3-(Cyclopropylcarbamoyl)-1-phenyl-1H-pyrazol-4-yl)-6-(1H-pyrazol-5-yl)picolinamide] | < 100 nM |
| O=C(Nc1cn(-c2ccccc2)nc1C(=O)NC1CC1(F)F)c1cccc(-c2ccn[nH]2)n1 (stereo not drawn) [Compound A251, N-(3-((2,2-Difluorocyclopropyl)carbamoyl)-1-phenyl-1H-pyrazol-4-yl)-6-(1H-pyrazol-5-yl)picolinamide] | < 100 nM |
| O=C(Nc1cn(C2CCC2)nc1C(=O)NC1CC1)c1cccc(-c2ccn[nH]2)n1 [Compound A252, N-(1-Cyclobutyl-3-(cyclopropylcarbamoyl)-1H-pyrazol-4-yl)-6-(1H-pyrazol-5-yl)picolinamide] | < 100 nM |
| O=C(Nc1cn(C2CNC2)nc1C(=O)NC1CC1)c1cccc(-c2ccn[nH]2)n1 [Compound A253, N-(1-(Azetidin-3-yl)-3-(cyclopropylcarbamoyl)-1H-pyrazol-4-yl)-6-(1H-pyrazol-5-yl)picolinamide] | < 100 nM |
| O=C(Nc1cn(C2CCNC2)nc1C(=O)NC1CC1)c1cccc(-c2ccn[nH]2)n1 (stereo not drawn) [Compound A254, N-(3-(Cyclopropylcarbamoyl)-1-(pyrrolidin-3-yl)-1H-pyrazol-4-yl)-6-(1H-pyrazol-5-yl)picolinamide] | 100 to 1000 nM |
